Counter-ions that a name gives are not always drawn.
How the values were obtained:
MRSA biofilms [1] = assay: EBEC, high number biofilms on PEEK membranes, 10^9 to 10^2 CFU/PEEK membrane in 24 hours; format: cell-based, Staphylococcus aureus
Procedure: (§1) In addition to determining the MIC and the MBEC of polyamine compounds against planktonic bacteria and low number biofilms, our group wanted to determine the efficacy of polyamine compounds against high number biofilms. To do so, biofilms were grown on the surface of polyetheretherketone (PEEK) membranes using a membrane biofilm reactor. This reactor is similar to the CDC biofilm reactor, but rather than growing biofilms on coupon surfaces, the reactor was modified to hold PEEK membranes. In short, to grow biofilms within this system, 500 mL of brain heart infusion (BHI) broth were inoculated with 1 mL of a 0.5 McFarland. The reactor was placed on a hot plate set at 34° C. and the bacteria were grown under batch conditions for 24 hours. Following this protocol, biofilms typically grow to 10^9 CFU/PEEK membrane. […] A solution of 10% BHI was then flowed through the reactor at a rate of 6.94 mL/min for an additional 24 hours. PEEK membranes were then removed and placed into 2 mL of CAMHB that contained a desired concentration of polyamine compound or antibiotic. The EBEC was defined as the concentration of antimicrobial required to reduce a biofilm from approximately 10^9 CFU/PEEK membrane to approximately 10^2 CFU/PEEK membrane in a 24-hour period.
(§2) In addition to determining the MIC and the MBEC of compounds against planktonic bacteria and low number biofilms, the efficacy of the compounds of the invention against high number biofilms is determined. To do so, biofilms are grown on the surface of PEEK membranes using a membrane biofilm reactor (Williams, D. L., Haymond, B. S. & Bloebaum, R. D. Use of delrin plastic in a modified CDC biofilm reactor. Res J Microbiol 6, 425-429 (2011); Williams, D. L., Woodbury, K. L., Haymond, B. S., Parker, A. E. & Bloebaum, R. D. A modified CDC biofilm reactor to produce mature biofilms on the surface of PEEK membranes for an in vivo animal model application. Curr Microbiol 62, 1657-1663 (2011); Williams, D. L. et al., In Vivo Efficacy of a Silicone—Cationic Steroid Antimicrobial Coating to Prevent Implant-Related Infection. Biomaterials 33, 8641-8656 (2012); Williams, D. L. et al., Experimental model of biofilm implant-related osteomyelitis to test combination biomaterials using biofilms as initial inocula. J Biomed Mat Res A 100, 1888-1900 (2012)). This reactor is similar to the CDC biofilm reactor, but rather than growing biofilms on coupon surfaces, the reactor was modified to hold PEEK membranes. In short, to grow biofilms within this system, 500 mL of brain heart infusion (BHI) broth is inoculated with 1 mL of a 0.5 McFarland. The reactor is placed on a hot plate set at 34° C. and the bacteria grown under batch conditions for 24 hours. A solution of 10% BHI will then be flowed through the reactor at a rate of 6.94 mL/min for an additional 24 hours. Following this protocol, biofilms typically grow to 10^9 CFU/PEEK membrane. PEEK membranes is removed and placed into 2 mL of CAMHB that contain a desired concentration of the test compound. The EBEC is defined as the concentration of antimicrobial required to reduce a biofilm from approximately 10^9 CFU/PEEK membrane to approximately 10^2 CFU/PEEK membrane in a 24-hour period.
EBEC data were collected to determine the efficacy of CZ-52, CZ-58 and traditional antibiotics against high number biofilms containing approximately 10^9 CFU grown on the surface of a polyetheretherketone (PEEK) membrane.

A. baumannii biofilms [2] = assay: as above; format: cell-based, Acinetobacter baumannii
Procedure: as §1, §2
EBEC data were collected to determine the efficacy of CZ-52, CZ-58 and traditional antibiotics against high number biofilms containing approximately 10^9 CFU grown on the surface of a polyetheretherketone (PEEK) membrane. […] In contrast, at 250 μg/mL CZ-52 was able to reduce MRSA biofilms by greater than 7 log10 units in a 24-hour period. Although the MIC of CZ-58 was lower against MRSA compared to A. baumannii, CZ-58 had greater activity against biofilms of A. baumannii than against MRSA biofilms in the EBEC assay. […] Although the MIC of CZ-58 was “high” compared to MICs of traditional antibiotics, the efficacy against biofilms was promising.

biofilm of MRSA = assay: Combination treatment: dispersal of a biofilm; format: cell-based, Staphylococcus aureus; conditions: […] mixed with chlorhexidine gluconate at […]; biofilm of 10^11 cells; within one hour
MRSA biofilms [3] = assay: MBEC, MBEC Inoculation Tray (Innovotech), to 10^2 CFU/peg in 24 hours; format: cell-based; conditions: Staphylococcus aureus, read-out: MICs (μg/mL): MRSA
A. baumannii biofilms [4] = assay: as above; format: cell-based, Acinetobacter baumannii; conditions: Table 3B c1, group head missing, probably MBEC
MRSA biofilms [5] = assay: EBEC, high number biofilms on PEEK membranes, 10^9 to 10^2 CFU/PEEK membrane in 24 hours; format: cell-based; conditions: Staphylococcus aureus, read-out: MICs (μg/mL) II: MRSA
A. baumannii biofilms [6] = assay: as above; format: cell-based, Acinetobacter baumannii; conditions: Table 3B c4, group head missing
[7] = Acinetobacter baumannii, read-out: MICs (μg/mL) II: A. baumannii

Compound	EBEC μg/mL (μM) MRSA (MRSA biofilms [1]; Table 4)	EBEC μg/mL (μM) A. baumannii (A. baumannii biofilms [2]; Table 4)	EBEC μg/mL (μM) MRSA (MRSA biofilms [1]; Table 4, value in parentheses)	EBEC μg/mL (μM) A. baumannii (A. baumannii biofilms [2]; Table 4, value in parentheses)	further results
NCCCNCCCNCc1cc(CNCCCNCCCN)cc(-c2ccccc2)c1 [CZ-58, N^1,N^1′-([1,1′-biphenyl]-3,5-diylbis(methylene))bis(N^3-(3-ammoniopropyl)propane-1,3-diaminium) chloride]	1,500 μg/mL	400 µg/mL			
NCCCNCCCNCc1ccccc1 [CZ-7, benzylnorspermidine]	>5,000 μg/mL	>10,000 μg/mL	(>22,590) μM	(>45,180) μM	dispersal of a biofilm of MRSA (biofilm of MRSA): significant dispersal; MIC (MRSA biofilms [3]; Table 3A c4, group head missing, probably MBEC): > 500 µg/mL; MIC (A. baumannii biofilms [4]; [7]): > 500 µg/mL; MIC (MRSA biofilms [5]; Table 3B c2, group head missing): > 5000 µg/mL; MIC (A. baumannii biofilms [6]; [7]): > 5000 µg/mL
NCCCNCCCNCc1cccc(CNCCCNCCCN)c1 [CZ-25, N^1,N^1′-(1,3-phenylenebis(methylene))bis(N3-(3-ammoniopropyl)propane-1,3-diaminium) chloride]	>5,000 μg/mL	~7,500 μg/mL			
CN[C@H](CC(C)C)C(=O)N[C@H]1C(=O)N[C@@H](CC(N)=O)C(=O)N[C@H]2C(=O)N[C@H]3C(=O)N[C@H](C(=O)N[C@H](C(=O)O)c4cc(O)cc(O)c4-c4cc3ccc4O)[C@H](O)c3ccc(c(Cl)c3)Oc3cc2cc(c3O[C@@H]2O[C@H](CO)[C@@H](O)[C@H](O)[C@H]2O[C@H]2C[C@](C)(N)[C@H](O)[C@H](C)O2)Oc2ccc(cc2Cl)[C@H]1O [vancomycin, reference compound]	>>25,000 μg/mL				reduction of biofilms of MRSA (MRSA biofilms [1]; at 25,000 μg/mL, 24-hour period): < 1 log10 unit; MIC (MRSA biofilms [3]): > 500 µg/mL; MIC (MRSA biofilms [5]): > 25000 µg/mL
Polymyxin B sulfate [reference compound]		1,000 μg/mL		(722) μM	MICs (μg/mL) II: A. baumannii (A. baumannii biofilms [4]): 50 µg/mL; MICs (μg/mL) II: A. baumannii (A. baumannii biofilms [6]): 1,000 μg/mL
NCCCNCCCNCc1cc(CNCCCNCCCN)cc(CNCCCNCCCN)c1 [CZ-52, N^1,N^1′,N^1″-(benzene-1,3,5-triyltris(methylene))tris(N^3-(3-aminopropyl)propane-1,3-diamine), hydrochloride salt]	250 µg/mL	~7,000 μg/mL	(500) μM	(~14,000) μM	

Reference: patent publication US10440955B2, “Methods comprising a biocidal polyamine” (Curza Global, LLC, priority 2013, dated 2019)
